Source: patent publication US8809358B2, “Use of IκB-kinase inhibitors in pain therapy” (Sanofi-Aventis Deutschland GmbH, priority 2002, dated 2014)
Each block holds one compound with its values, some of them ahead of it.

Legend:
[1] = system: Zymosan-induced paw inflammation; experiment: Zymosan-induced paw inflammation in the mouse: spontaneous running performance in a running wheel; assay type: in vivo, C57/B6 mice
Procedure: 4th Model: • Zymosan-induced paw inflammation in the mouse; • Parameter: spontaneous running performance in a running wheel. In the cage in which it is kept, the experimental animal has access to a running wheel, the revolutions of which are recorded electronically. During the night hours, the C57/B6 mice use the running wheel voluntarily and, after a one-week phase of acclimatization, cover on average 4 100 meters/night. After zymosan has been injected, the distance run each night is reduced. This reduction in running performance is a valid parameter for a restriction in function which is due to inflammation pain. Experimental implementation: After an acclimatization phase of one week, the distance run/24 hours was measured in order to determine the base line. 25 μl of a suspension containing 50 mg of zymosan/ml were then injected into the right hind paw of the experimental animal during short-term anesthesia using isoflurane. The distance run/24 hours was then determined during the following seven days. In the analysis, the area under the curve for the values for the distance run was determined (AUC, tab. 7): the lower the AUC, the lower was the running performance during the week following injection of the zymosan. […] The substance was administered for the first time on day 1 after injection of the zymosan.

[2] = system: Zymosan-induced paw inflammation; experiment: Zymosan-induced paw inflammation in the mouse: paw withdrawal time during thermal stimulation of the hind paw; assay type: in vivo; conditions: thermal hyperalgesia AUC, seven days; 200 mg/kg twice daily
Procedure: • Zymosan-induced paw inflammation in the mouse; • Parameter: paw withdrawal time during thermal stimulation of the hind paw. Experimental implementation: In short-term anesthesia using isoflurane, 25 μl of a suspension containing 50 mg of zymosan/ml were injected into the right hind paw of the experimental animal. The development of a hyperalgesia was then determined quantitatively as follows: Determining the Paw Withdrawal Time During Thermal Stimulation (Hargreave's Test; See Above). The experimental animal was placed in a transparent plastic chamber having a glass floor. As soon as the experimental animal was no longer moving, following the reconnaissance phase (about 5 min), an infrared light source was positioned directly below the hind paw to be stimulated and switched on. The lamp emitted focused infrared light of increasing intensity such that the skin temperature of the hind paw increased almost linearly. As soon as the animal withdrew the paw, the lamp switched itself off. The temperature of the paw at the time it is withdrawn has just become unpleasant for the animal; this is referred to as the thermal pain threshold. Shortly before the zymosan injection, and for from 7 to 14 days after the injection, the thermal pain threshold was determined once daily on the right hind paw and left hind paw. Subsequently, the integral of the area which was formed from the curves for the paw withdrawal times of the inflamed paw and the noninflamed paw (AUC, area between the curves, see tables 5 and 6) was determined as a measure of the hyperalgesia. The larger this value is, the more pronounced is the hyperalgesia, and the smaller the value is in animals which are being given the substance, the greater is the success of the therapy. […] A very high dose of paracetamol was likewise administered twice daily to another group of animals which was taken through the experiment in parallel. […] The scheme for zymosan injection and dosing was identical to that in the previously described study. The only difference was that this additional study ran for 14 days.

[3] = system: Kaolin/carrageenan-induced knee joint inflammation; experiment: Kaolin/carrageenan-induced knee joint inflammation in the rat: reaction of spinal neurons during pressure stimulation of the knee; assay type: in vivo
Excerpt: • Zymosan-induced paw inflammation in the rat; • Parameter: paw withdrawal time or paw withdrawal threshold during thermal or mechanical stimulation of the hind paw. 2nd Model: • Kaolin/carrageenan-induced knee joint inflammation in the rat; • Parameter: reaction of spinal neurons during pressure stimulation of the knee. Model 1
Experimental implementation: In rats which were under sodium thiopental anesthesia, the spinal canal was opened and spinal medullary neurons which processed the “pain impulses” from the knee-joint were identified. Following identification, a long-term recording, in which the activity of the nerve cell was recorded before and during the development of an acute inflammation in the knee-joint, was carried out. For this, the responses to non-noxious and noxious stimulation at the knee-joint were measured in a control period before inducing the inflammation and for several hours after inducing the inflammation.
The acute inflammation was induced by the intraarticular injection of a suspension (about 150 μl) of kaolin and carrageenan. In controlled experiments, only the vehicle was applied to the spinal medullary surface in order to represent the development of the hyperexcitability under control conditions. As a rule, this development of hyperexcitability took place within 2 to 4 hours and was expressed in a marked increase in the responses to non-noxious and noxious stimulation of the knee-joint (Tab. 3). […] The responses of the cell to non-noxious and noxious stimulation were then subsequently monitored as in the control experiments.

IκB-kinase = target: T1, IκB-kinase (Homo sapiens, UniProt O14920+O15111); experiment: IκB-Kinase ELISA; assay type: biochemical; conditions: kinase complex from HeLa S3 cell extract, activated with MEKK1Δ
T1 construct: endogenous in cells; host or cells: HeLa S3 cell extract S100; ammonium sulfate cut and Superose-6 gel filtration (670 kDa fractions)
T1 sequence (O14920 whole entry): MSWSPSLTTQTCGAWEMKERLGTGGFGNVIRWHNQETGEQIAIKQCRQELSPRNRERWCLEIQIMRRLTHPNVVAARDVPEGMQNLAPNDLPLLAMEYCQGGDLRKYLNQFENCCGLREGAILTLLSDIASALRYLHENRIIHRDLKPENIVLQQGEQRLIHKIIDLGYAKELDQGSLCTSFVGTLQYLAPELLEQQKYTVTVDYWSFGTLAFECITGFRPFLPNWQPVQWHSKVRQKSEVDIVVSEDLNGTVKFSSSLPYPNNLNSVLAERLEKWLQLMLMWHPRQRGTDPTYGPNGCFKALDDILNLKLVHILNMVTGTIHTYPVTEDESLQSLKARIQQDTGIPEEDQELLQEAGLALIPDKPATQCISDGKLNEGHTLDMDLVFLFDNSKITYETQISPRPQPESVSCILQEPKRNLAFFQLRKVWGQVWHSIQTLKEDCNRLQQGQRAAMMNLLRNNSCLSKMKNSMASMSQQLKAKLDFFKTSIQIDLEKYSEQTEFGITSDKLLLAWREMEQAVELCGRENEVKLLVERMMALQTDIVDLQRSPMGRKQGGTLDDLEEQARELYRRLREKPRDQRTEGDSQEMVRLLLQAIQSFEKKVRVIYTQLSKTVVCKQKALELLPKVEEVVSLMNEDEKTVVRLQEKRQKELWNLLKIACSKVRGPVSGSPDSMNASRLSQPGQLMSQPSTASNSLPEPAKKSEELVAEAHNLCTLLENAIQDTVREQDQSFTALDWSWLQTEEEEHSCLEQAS
T1 sequence (O15111 whole entry): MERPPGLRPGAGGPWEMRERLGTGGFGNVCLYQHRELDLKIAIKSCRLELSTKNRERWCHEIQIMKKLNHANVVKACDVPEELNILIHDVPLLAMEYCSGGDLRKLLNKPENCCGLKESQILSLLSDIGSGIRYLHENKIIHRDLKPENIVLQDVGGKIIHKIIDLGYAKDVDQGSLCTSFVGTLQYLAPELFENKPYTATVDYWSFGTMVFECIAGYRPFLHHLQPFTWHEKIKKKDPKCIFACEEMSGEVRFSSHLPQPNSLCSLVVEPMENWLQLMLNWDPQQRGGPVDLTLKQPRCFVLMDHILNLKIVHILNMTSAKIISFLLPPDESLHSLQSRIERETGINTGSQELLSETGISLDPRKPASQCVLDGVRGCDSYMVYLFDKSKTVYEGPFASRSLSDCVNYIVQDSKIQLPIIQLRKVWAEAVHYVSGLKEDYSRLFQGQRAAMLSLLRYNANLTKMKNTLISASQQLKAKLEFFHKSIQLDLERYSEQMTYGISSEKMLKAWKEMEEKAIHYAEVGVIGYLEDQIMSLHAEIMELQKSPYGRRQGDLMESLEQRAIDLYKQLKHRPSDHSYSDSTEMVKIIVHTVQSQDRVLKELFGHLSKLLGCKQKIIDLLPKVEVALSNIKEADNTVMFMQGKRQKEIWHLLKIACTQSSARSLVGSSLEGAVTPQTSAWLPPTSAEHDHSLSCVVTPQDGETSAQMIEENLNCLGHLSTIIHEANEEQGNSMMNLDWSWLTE
T1 sequence (Q9Y6K9 whole entry partner): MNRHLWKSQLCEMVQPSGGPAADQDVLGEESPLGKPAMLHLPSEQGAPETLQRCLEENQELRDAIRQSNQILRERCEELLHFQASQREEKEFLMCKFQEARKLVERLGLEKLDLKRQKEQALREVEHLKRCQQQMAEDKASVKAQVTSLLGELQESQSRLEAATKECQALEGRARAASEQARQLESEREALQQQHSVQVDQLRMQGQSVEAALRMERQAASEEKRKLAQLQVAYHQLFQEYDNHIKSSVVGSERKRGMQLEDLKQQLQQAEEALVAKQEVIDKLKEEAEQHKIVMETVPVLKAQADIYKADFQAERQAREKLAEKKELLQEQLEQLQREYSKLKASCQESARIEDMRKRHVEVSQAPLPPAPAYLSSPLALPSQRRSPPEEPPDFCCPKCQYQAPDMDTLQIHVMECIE

Compound: CC(=O)Nc1ccc(O)cc1 [Paracetamol, reference compound]
- distance run as compared with the vehicle group ([1]; mouse, 7 days, extremely high dose): no improvement
- Statistical difference as compared with the vehicle ([1]; running wheel AUC, seven days, 200 mg/kg twice daily): no
- Statistical difference as compared with the vehicle [2]: yes

- IC50 (IκB-kinase): 0.045 µM
Compound: CNc1nccc(-c2nc3cc(C(=O)N[C@@H](CN(c4ccccc4)c4ccccc4)C(N)=O)ccc3[nH]2)n1 [Compound 22, N—((S)-1-carbamoyl-2-diphenylaminoethyl)-2-(2-methylaminopyrimidin-4-yl)-1H-benzimidazole-5-carboxamide]
- Neuronal responses before and during knee-joint inflammation (imp/15 s) ([3]; Experiment 1, Non-noxious stimulation at the knee-joint, 30-60 min after K/C injection): −34.1 imp/15 s
- Neuronal responses before and during knee-joint inflammation (imp/15 s) ([3]; Experiment 1, Non-noxious stimulation at the knee-joint, 60-120 min after K/C injection): −37.2 imp/15 s
- Neuronal responses before and during knee-joint inflammation (imp/15 s) ([3]; Experiment 1, Non-noxious stimulation at the knee-joint, 120-180 min after K/C injection): −32.1 imp/15 s
- Neuronal responses before and during knee-joint inflammation (imp/15 s) ([3]; Experiment 1, Non-noxious stimulation at the knee-joint, Baseline): 0 imp/15 s
- Neuronal responses before and during knee-joint inflammation (imp/15 s) ([3]; Experiment 1, Noxious stimulation at the knee-joint, 30-60 min after K/C injection): −109.1 imp/15 s
- Neuronal responses before and during knee-joint inflammation (imp/15 s) ([3]; Experiment 1, Noxious stimulation at the knee-joint, 60-120 min after K/C injection): −101.1 imp/15 s
- Neuronal responses before and during knee-joint inflammation (imp/15 s) ([3]; Experiment 1, Noxious stimulation at the knee-joint, 120-180 min after K/C injection): −37.8 imp/15 s
- Neuronal responses before and during knee-joint inflammation (imp/15 s) ([3]; Experiment 1, Noxious stimulation at the knee-joint, Baseline): 0 imp/15 s
- Neuronal responses before and during knee-joint inflammation (imp/15 s) ([3]; Experiment 2, Non-noxious stimulation at the knee-joint, 30-60 min after K/C injection): −30.6 imp/15 s
- Neuronal responses before and during knee-joint inflammation (imp/15 s) ([3]; Experiment 2, Non-noxious stimulation at the knee-joint, 120-180 min after K/C injection): 50.3 imp/15 s
- Neuronal responses before and during knee-joint inflammation (imp/15 s) ([3]; Experiment 2, Non-noxious stimulation at the knee-joint, 180-240 min after K/C injection): 68.7 imp/15 s
- Neuronal responses before and during knee-joint inflammation (imp/15 s) ([3]; Experiment 2, Non-noxious stimulation at the knee-joint, Baseline): 0 imp/15 s
- Neuronal responses before and during knee-joint inflammation (imp/15 s) ([3]; Experiment 2, Noxious stimulation at the knee-joint, 30-60 min after K/C injection): −9.2 imp/15 s
- Neuronal responses before and during knee-joint inflammation (imp/15 s) ([3]; Experiment 2, Noxious stimulation at the knee-joint, 120-180 min after K/C injection): 60 imp/15 s
- Neuronal responses before and during knee-joint inflammation (imp/15 s) ([3]; Experiment 2, Noxious stimulation at the knee-joint, 180-240 min after K/C injection): 96.7 imp/15 s
- Neuronal responses before and during knee-joint inflammation (imp/15 s) ([3]; Experiment 2, Noxious stimulation at the knee-joint, Baseline): 0 imp/15 s
- effect in model 2 ([3]; rat): good effect
